We go through 43 compounds from PubChem BioAssay AID2286 (Southern Research Specialized Biocontainment Screening …, 2010).

Activity calls are given as the source filed them.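 How the source made its calls: active means minimum cell viability of 80% or lower across the dose range, counted as toxic; inactive means minimum cell viability above 80%.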

This assay is described as follows: MAGI-CCR5 and HeLa-R5-16 cytotoxicity, dose response, cytotoxicity control for HIV-1 fusion inhibitor project, cell-based, MAGI and MAGI-HeLa co-culture (AID 2286).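 On all read-outs here: cells exposed to compound for at least 64 h before ATP readout; 100% = median of DMSO vehicle wells with no ATP signal meaning 0%.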 The following applies: MAGI-CCR5 cells viability, CellTiter-Glo ATP luminescence; for minimum viability: measured here: MAGI minimum viability across doses. For orientation: Cellular ATP, detected with luciferase, serves as a proxy for viable cell number.

[1] abbreviates: MAGI-HeLa co-culture viability, at 50 µM, stronger effect = lower value.
Setting [2] is: at 1.56 µM, stronger effect = lower value.
[3] abbreviates: at 12.5 µM, stronger effect = lower value.
[4] abbreviates: at 6.25 µM, stronger effect = lower value.
[5] abbreviates: at 3.13 µM, stronger effect = lower value.

Usually viability stands for a read-out of living cells in per cent, often relative to untreated cells. As for `O=C(O)c1cccc(-n2cccc2/C=C2/NC(=O)N(c3ccc(Cl)cc3)C2=O)c1`, the viability reads like this: under setting [1], 112%; (at 50 µM (top of the series)) 106% (inactive). In addition, the minimum viability under setting [2] is 97.5%.

With `CS(=O)(=O)C1=NSC2=NC(=O)/C(=C\c3ccc(OS(=O)(=O)c4ccccc4)cc3)C(=N)N21`, the viability by setting is: under setting [1], 89.2%; (at 25 µM (top of the series)) 83.8% (inactive). Besides, the minimum viability under setting [3] turned out to be 83.1%.

Consider `COc1ccc(-c2nn(-c3ccccc3)cc2/C=C\C(=O)Nc2ccc(C(=O)O)cc2)cc1`, for which the viability under setting [1] was 93.2%. In addition, where the note is “at 50 µM, stronger effect = lower value”, the minimum viability came to 73%.

Consider `CC(c1ccccc1)N1C(=O)c2ccc(C(=O)Nc3ccccc3C(=O)O)cc2C1=O` (configuration not stated), for which the viability was 111% under setting [1] and 100% (inactive) (at 50 µM (top of the series)). For the same compound, the minimum viability (at 25 µM, stronger effect = lower value) worked out at 85.5%.

For `O=C(O)c1[nH]c2ccccc2c1C(c1cccc(O)c1)c1c(C(=O)O)[nH]c2ccccc12`, the viability by setting is: under setting [1], 95.1%; (at 50 µM (top of the series)) 91.2% (inactive). Under setting [4], the minimum viability is 86.4%.

Take `COc1ccc(O)c(C(=O)c2cc(SCC(=O)O)c3nc4sc5c(c4c(=O)n3c2)CCCC5)c1`: the viability under setting [1] was determined as 122% and the viability (at 50 µM (top of the series)) is 96.7% (inactive). In addition, the minimum viability under setting [3] came to 90.5%.

For `Cc1cc(N2C(=O)C(O)=C(C(=O)c3cc4ccccc4o3)C2c2ccc(Cl)cc2)no1` (configuration not stated), the viability is 123% under setting [1] and 83.2% (inactive) (at 50 µM (top of the series)). For the same compound, the minimum viability (at 50 µM, stronger effect = lower value) was found to be 83.2%.

Consider `CCCCCNC(=O)c1ccc2c(=O)[nH]c3c(C(=O)NCC4CCCO4)sc(=S)n3c2c1` (configuration not stated), for which the viability under setting [1] turned out to be 105%. Besides, under “at 25 µM, stronger effect = lower value”, the minimum viability was 69.3%.

On to `Cc1cc(N2C(=O)C(O)=C(C(=O)c3cc4ccccc4o3)C2c2cccc(Br)c2)no1` (configuration not stated), for which the viability is, setting by setting: under setting [1], 137%; (at 50 µM (top of the series)) 87.1% (inactive). Besides, for the setting “at 25 µM, stronger effect = lower value”, the minimum viability stood at 86.4%.

With `O=C1NC(=O)/C(=C/c2ccc(-c3cc(C(=O)O)ccc3Cl)o2)S1`, the viability by setting is: under setting [1], 105%; (at 50 µM (top of the series)) 91% (inactive). Also, the minimum viability under setting [4] is 88.5%.

As for `Cc1cc(C)c2nc(N3C(=O)C(O)=C(C(=O)c4ccco4)C3c3ccco3)sc2c1` (configuration not stated), the viability by setting is: under setting [1], 119%; (at 50 µM (top of the series)) 91.8% (inactive). The minimum viability (at 50 µM, stronger effect = lower value) stood at 91.8%.

For the compound `CCN1C(=O)/C(=C\c2ccc(-c3ccc([N+](=O)[O-])cc3OC)o2)SC1=Nc1cccc(C(=O)O)c1`, the viability runs as follows: under setting [1], 106%; (at 50 µM (top of the series)) 88.3% (inactive). Besides, under setting [5], the minimum viability was found to be 87.5%.

As for `CCOC(=O)c1sc(N2C(=O)C(O)=C(C(=O)c3ccco3)C2c2cccc([N+](=O)[O-])c2)nc1C` (configuration not stated), the viability is 110% under setting [1] and 83.5% (inactive) (at 50 µM (top of the series)). Also, the minimum viability (at 50 µM, stronger effect = lower value) came to 83.5%.

With `O=C(O)CN1C(=O)/C(=C\c2cccc(OCc3ccc(Cl)cc3)c2)SC1=S`, the viability under setting [1] came out at 98.9% and the viability (at 50 µM (top of the series)) was 83.6% (inactive). Besides, under “at 50 µM, stronger effect = lower value”, the minimum viability is 83.6%.

In the case of `O=C(N/N=C/c1c(O)n(C2CCCCC2)c(=S)[nH]c1=O)c1ccccc1O`, the viability under setting [1] came out at 84.7%. Also, the minimum viability (at 50 µM, stronger effect = lower value) turned out to be 64.3%.

With `Cc1cccc(OCC(=O)Nc2ccc(C(=O)Nc3ccccc3C(=O)O)cc2)c1C`, under setting [1], the viability is 93%. Where the note is “at 50 µM, stronger effect = lower value”, the minimum viability was found to be 76.6%.

For `O=C(O)CCN1C(=O)/C(=C\c2cccc(Oc3ccccc3)c2)SC1=S`, the viability by setting is: under setting [1], 90.5%; (at 50 µM (top of the series)) 87.3% (inactive). Also, where the note is “at 25 µM, stronger effect = lower value”, the minimum viability came to 86.3%.

For `O=C(CCN1C(=O)/C(=C/c2ccccc2Cl)SC1=S)Nc1ccccc1C(=O)O`, the viability is 109% under setting [1] and 98.3% (inactive) (at 50 µM (top of the series)). Where the note is “at 0.78 µM, stronger effect = lower value”, the minimum viability stood at 87.5%.

Regarding `O=C(N/N=C/c1cc(Cl)cc([N+](=O)[O-])c1O)c1ccccc1NS(=O)(=O)c1cccs1`, the viability was 107% under setting [1] and 96.6% (inactive) (at 50 µM (top of the series)). Besides, the minimum viability under setting [3] is 92.8%.

Take `O=C1NC(=S)N(c2ccc(F)cc2)C(=O)/C1=C/c1ccco1`: the viability under setting [1] is 122% and the viability (at 50 µM (top of the series)) was 131% (inactive). Besides, the minimum viability under setting [2] worked out at 105%.

Regarding `COC1C(OC(=O)c2ccc(C)[nH]2)C(O)C(Oc2ccc3c(O)c(NC(=O)c4ccc(O)c(CC=C(C)C)c4)c(=O)oc3c2Cl)OC1(C)C` (configuration not stated), the viability under setting [1] was 111% and the viability (at 50 µM (top of the series)) was 81.8% (inactive). Also, the minimum viability (at 50 µM, stronger effect = lower value) worked out at 81.8%.

Turning to `COc1cc(Cl)cc(C(c2c(C(=O)O)[nH]c3ccccc23)c2c(C(=O)O)[nH]c3ccccc23)c1O`, the viability runs as follows: under setting [1], 100%; (at 25 µM (top of the series)) 80.5% (inactive). The minimum viability (at 25 µM, stronger effect = lower value) was 80.5%.

Regarding `O=C1NC(=S)N(c2ccc(F)cc2)C(=O)/C1=C\c1ccoc1`, the viability reads like this: under setting [1], 99.5%; (at 50 µM (top of the series)) 84.8% (inactive). Also, the minimum viability (at 50 µM, stronger effect = lower value) worked out at 84.8%.

In the case of `O=C(O)CSCC(=O)N(Cc1ccccc1)c1nc(-c2ccccc2)c(-c2ccccc2)s1`, the viability is, setting by setting: under setting [1], 121%; (at 50 µM (top of the series)) 89% (inactive). The minimum viability (at 50 µM, stronger effect = lower value) is 89%.

Consider `Cc1ccc(Cl)cc1N1CCN(C(=O)Cc2c(C(=O)O)[nH]c3ccc(Cl)cc23)CC1`, for which the viability is, setting by setting: under setting [1], 98.9%; (at 50 µM (top of the series)) 91.8% (inactive). For the same compound, under setting [3], the minimum viability came out at 85.7%.

On to `O=C(O)c1ccc(-c2ccc(/C=c3/sc4nc5ccccc5n4c3=O)o2)cc1Cl`, for which the viability runs as follows: under setting [1], 116%; (at 50 µM (top of the series)) 92.3% (inactive). The minimum viability (at 25 µM, stronger effect = lower value) turned out to be 87.5%.

Consider `COc1cc(/C=N/NC(=O)C(Cc2c[nH]c3ccccc23)NC(=O)OCc2ccccc2)cc([N+](=O)[O-])c1O` (configuration not stated), for which the viability by setting is: under setting [1], 107%; (at 50 µM (top of the series)) 95% (inactive). Moreover, the minimum viability (at 25 µM, stronger effect = lower value) was found to be 92.5%.

Turning to `COc1cc(/C=C2\SC(=O)N(CC(=O)Nc3cccc(C)c3)C2=O)cc([N+](=O)[O-])c1O`, the viability under setting [1] came out at 111%. The minimum viability (at 50 µM, stronger effect = lower value) was determined as 74.5%.

`CCOc1cc(/C=C2/C(=N)N3C(=NC2=O)SN=C3S(=O)(=O)C(C)C)ccc1OC(=O)c1ccco1`: the viability runs as follows: under setting [1], 103%; (at 50 µM (top of the series)) 91.5% (inactive). The minimum viability under setting [3] stood at 86.8%.

Regarding `CCOC(=O)c1c(N2C(=O)Nc3cc(Cl)c(Cl)cc3N2O)sc2c1CCCCC2`, the viability under setting [1] is 98.1%. Also, where the note is “at 50 µM, stronger effect = lower value”, the minimum viability was determined as 70.1%.

With `COc1ccc(C(=O)COC(=O)c2ccccc2NS(=O)(=O)c2ccc(O)c([N+](=O)[O-])c2)cc1`, the viability by setting is: under setting [1], 96%; (at 50 µM (top of the series)) 83.3% (inactive). In addition, the minimum viability (at 50 µM, stronger effect = lower value) worked out at 83.3%.

Turning to `CC(C)S(=O)(=O)C1=NSC2=NC(=O)/C(=C\c3ccc(-c4cccc(C(=O)O)c4)o3)C(=N)N21`, the viability reads like this: under setting [1], 90.9%; (at 50 µM (top of the series)) 101% (inactive). The minimum viability under setting [5] stood at 85.2%.

`N#Cc1c(-c2ccccc2)nc(SCc2cccc(C(F)(F)F)c2)[nH]c1=O`: the viability is, setting by setting: under setting [1], 115%; (at 50 µM (top of the series)) 82.1% (inactive). Further, the minimum viability (at 50 µM, stronger effect = lower value) came out at 82.1%.

For `CS(=O)(=O)C1=NSC2=NC(=O)/C(=C\c3cccn3-c3ccc(Cl)cc3)C(=N)N21`, the viability by setting is: under setting [1], 93.6%; (at 50 µM (top of the series)) 88% (inactive). For the same compound, where the note is “at 50 µM, stronger effect = lower value”, the minimum viability was 88%.

For `COc1cc(/C=N/Nc2ccc(Cl)c(C(=O)O)c2)ccc1OC(=O)c1ccccc1F`, the viability was 105% under setting [1] and 103% (inactive) (at 50 µM (top of the series)). In addition, under setting [5], the minimum viability came to 95.8%.

As for `COc1cc(C(c2c(C(=O)O)[nH]c3ccccc23)c2c(C(=O)O)[nH]c3ccccc23)ccc1OCc1ccccc1`, the viability is 90.3% under setting [1] and 85.8% (inactive) (at 50 µM (top of the series)). In addition, under setting [3], the minimum viability was 82.7%.

With `O=C(COc1ccc(Cl)cc1)Nc1cc(NC(=O)COc2ccc(Cl)cc2)cc(C(=O)O)c1`, the viability by setting is: under setting [1], 99.5%; (at 50 µM (top of the series)) 105% (inactive). For the same compound, under setting [3], the minimum viability was 98.6%.

In the case of `O=C1/C(=C2\C(=O)N(Cc3ccc(F)cc3)c3ccccc32)SC(=S)N1CCS(=O)(=O)O`, the viability is 114% under setting [1] and 99.5% (inactive) (at 50 µM (top of the series)). Moreover, for the setting “at 50 µM, stronger effect = lower value”, the minimum viability was found to be 99.5%.

For the compound `CC(C)COc1ccc(-c2nn(-c3ccccc3)cc2/C=C2/SC(=S)N(CC(=O)O)C2=O)cc1`, the viability under setting [1] was 90.2% and the viability (at 50 µM (top of the series)) is 81.5% (inactive). The minimum viability (at 50 µM, stronger effect = lower value) amounted to 81.5%.

For `O=C1NN(c2ccccc2)C(=O)/C1=C\c1cccc(OC(=O)c2cccs2)c1`, the viability by setting is: under setting [1], 103%; (at 50 µM (top of the series)) 85.1% (inactive). Moreover, under “at 50 µM, stronger effect = lower value”, the minimum viability was 85.1%.

For `CC(C)S(=O)(=O)C1=NSC2=NC(=O)/C(=C\c3ccc(-c4ccccc4)o3)C(=N)N21`, under setting [1], the viability is 123%. Further, the minimum viability (at 50 µM, stronger effect = lower value) amounted to 73.2%.

For the compound `O=C(O)COc1ccc(/C=N/NC(=O)c2ccc(-c3csc(Nc4ccc(Cl)cc4)n3)cc2)cc1`, the viability by setting is: under setting [1], 96.5%; (at 50 µM (top of the series)) 96.8% (inactive). For the same compound, the minimum viability (at 25 µM, stronger effect = lower value) amounted to 83.4%.

On to `COc1cc(/C=C2\C(=N)N3N=C(S(C)(=O)=O)SC3=NC2=O)cc(OC)c1OCCOc1ccc(C)cc1`, for which the viability runs as follows: under setting [1], 111%; (at 50 µM (top of the series)) 101% (inactive). For the same compound, under “at 25 µM, stronger effect = lower value”, the minimum viability was determined as 98.3%.
